Source: patent US9328122B2, “7-substituted Hanfangichin B derivative, and preparation method and use thereof” (HANGZHOU BENSHENG PHARMACEUTICAL CO., LTD., priority 2012, dated 2016)
Converted amounts (≈) assume the structure as drawn.

Legend:
[1] = tested on: PC-3 (prostate cancer) cells; assay: MTT cell growth inhibition, solid tumor cells; assay type: cell-based, human; conditions: Homo sapiens, PC-3, 72 h, MTT
Text: (§1) Hep-2 (laryngeal carcinoma), A549 (human lung cancer), CaES-17 (esophageal cancer cell), PC-3 (prostate cancer), CNE (nasopharyngeal carcinoma cell) and SK-OV-3 (ovarian cancer cell), all of which were purchased from China Center For Type Culture Collection; RKO (human colon adenocarcinoma cell), MGC-803 (human gastric cancer cell), MG-63 (osteosarcoma), and U87-MG (malignant glioma cell), all of which were purchased from Fuxiang Bio-tech Co. Ltd., Shanghai, China; PANC-1 (pancreatic cancer), Becap37 (human breast cancer cell), Hela (human cervical cancer cell) and Hep G2 (human liver cancer cell), all of which were donated by Cancer Research Institute of Zhejiang University, China.
(§2) 6000 well-growing human solid tumor cells were obtained and inoculated into wells of a 96-well cell culture plate. The culture medium was DMEM High Glucose cell culture medium containing 10% fetal bovine serum. The plate was placed in a carbon dioxide cell incubator (5% CO2) at 37° C. and incubated for 24 hours. After added with 7-substituted fangchinoline derivatives of different concentration and mixing uniformly, the plate was placed in a carbon dioxide cell incubator (5% CO2) at 37° C. and incubated for 72 hours. Then the viable cell concentration was determined by the MTT method.

[2] = tested on: SK-OV-3 (ovarian cancer) cells; assay: MTT cell growth inhibition, solid tumor cells; assay type: cell-based, human; conditions: Homo sapiens, SK-OV-3, 72 h, MTT
Text: as §1, §2

[3] = tested on: PANC-1 (pancreatic cancer) cells; assay: MTT cell growth inhibition, solid tumor cells; assay type: cell-based, human; conditions: Homo sapiens, PANC-1, 72 h, MTT
Text: as §1, §2

[4] = tested on: CaEs-17 (esophageal cancer) cells; assay: MTT cell growth inhibition, solid tumor cells; assay type: cell-based, human; conditions: Homo sapiens, CaEs17, CaEs-17, 72 h, MTT
Text: as §1, §2

[5] = tested on: CNE (nasopharyngeal carcinoma) cells; assay: MTT cell growth inhibition, solid tumor cells; assay type: cell-based, human; conditions: Homo sapiens, CNE, 72 h, MTT
Text: as §1, §2

[6] = tested on: RPMI 8226 (multiple myeloma) cells; assay: MTT cell growth inhibition, multiple myeloma cells; assay type: cell-based, human; conditions: Homo sapiens, RPMI 8226, 72 h, MTT
Method: Myeloma cell lines: RPMI8226 (multiple myeloma), purchased from Fuxiang Bio-tech Co. Ltd., Shanghai, China.
(§3) 6000 well-growing cells were obtained and inoculated into wells of a 96-well cell culture plate. The culture medium was a RPMI-1640 cell culture medium containing 10% fetal bovine serum. After adding the 7-substituted fangchinoline derivatives of different concentrations the next day and mixing uniformly, the plate was placed in a carbon dioxide cell incubator (5% CO2) at 37° C. and incubated for 72 hours. Then the viable cell concentration was determined by the MTT method.

[7] = tested on: tumor; assay: Antitumor activity compared with fangchinoline, overall statement; assay type: cell-based; conditions: tumor type not specified
[8] = tested on: NB4 (acute promyelocytic leukemia) cells; assay: MTT cell growth inhibition, leukemia cells; assay type: cell-based; conditions: Homo sapiens, NB4, 72 h, MTT
Text: (§4) Leukemia cell lines: leukemia cell lines: K562adr (drug-resistant, chronic myeloid leukemia, CML), NB4 (acute promyelocytic leukemia, AML), Kasumi-1 (acute myeloid leukemia M2 type, AML-M2), Jurkat (acute lymphoblastic leukemia, ALL), all of which were donated by Cancer Research Institute of Zhejiang University, China; and H9 (acute lymphoblastic leukemia, ALL), which was purchased from China Center for Type Culture Collection.
(§5) Reagents: The standard sample of fangchinoline (FAN) was purchased from Ci Yuan Biotechnology Co., Ltd., Shaanxi, China; and the 7-substituted fangchinoline derivatives according to the present invention.
as §3, with “well-growing leukemia” for “well-growing”, “incubating” for “incubated”

[9] = tested on: K562/ADR (K562adr, drug-resistant chronic myeloid leukemia) cells; assay: MTT cell growth inhibition, leukemia cells; assay type: cell-based; conditions: Homo sapiens, K562/ADR, 72 h, MTT
Text: as §4, §5
as §3, with “well-growing leukemia” for “well-growing”, “incubating” for “incubated”

[10] = tested on: U87-MG (malignant glioma) cells; assay: MTT cell growth inhibition, solid tumor cells; assay type: cell-based; conditions: Homo sapiens, U-87 MG, U87-MG, 72 h, MTT
Text: as §1, §2

[11] = tested on: Hela (human cervical cancer) cells; assay: MTT cell growth inhibition, solid tumor cells; assay type: cell-based; conditions: Homo sapiens, Hela, 72 h, MTT
Text: as §1, §2

[12] = tested on: MG-63 (osteosarcoma) cells; assay: MTT cell growth inhibition, solid tumor cells; assay type: cell-based; conditions: Homo sapiens, MG-63, 72 h, MTT
Text: as §1, §2

[13] = tested on: RKO (human colon adenocarcinoma) cells; assay: MTT cell growth inhibition, solid tumor cells; assay type: cell-based; conditions: Homo sapiens, RKO, 72 h, MTT
Text: as §1, §2

[14] = tested on: Hep-2 (laryngeal carcinoma) cells; assay: MTT cell growth inhibition, solid tumor cells; assay type: cell-based; conditions: Homo sapiens, Hep-2, 72 h, MTT
Text: as §1, §2

[15] = tested on: A549 (human lung cancer) cells; assay: MTT cell growth inhibition, solid tumor cells; assay type: cell-based; conditions: Homo sapiens, A549, 72 h, MTT
Text: as §1, §2

[16] = tested on: Hep G2 (human liver cancer) cells; assay: MTT cell growth inhibition, solid tumor cells; assay type: cell-based; conditions: Homo sapiens, HepG2, Hep G2, 72 h, MTT
Text: as §1, §2

[17] = tested on: Becap-37 (human breast cancer) cells; assay: MTT cell growth inhibition, solid tumor cells; assay type: cell-based; conditions: Homo sapiens, Becap-37, 72 h, MTT
Text: as §1, §2

[18] = tested on: MGC-803 (human gastric cancer) cells; assay: MTT cell growth inhibition, solid tumor cells; assay type: cell-based; conditions: MGC-803, 72 h, MTT
Text: as §1, §2

COc1ccc2cc1Oc1ccc(cc1)C[C@H]1c3cc(c(OC)cc3CCN1C)Oc1c(OCc3ccc(C(F)(F)F)cc3)c(OC)cc3c1[C@H](C2)N(C)CC3 [BS-FC-216]
IC50 ([1]; read-out: IC50): 3.95 µg/mL (≈ 5.15 µM)
IC90 ([1]; read-out: IC90): 7.45 µg/mL (≈ 9.71 µM)
IC50 ([2]; read-out: IC50): 6.19 µg/mL (≈ 8.07 µM)
IC90 ([2]; read-out: IC90): 11.2 µg/mL (≈ 14.6 µM)
IC50 ([3]; read-out: IC50): 3.62 µg/mL (≈ 4.72 µM)
IC90 ([3]; read-out: IC90): 7.25 µg/mL (≈ 9.45 µM)
IC50 ([4]; read-out: IC50): 3.1 µg/mL (≈ 4.04 µM)
IC90 ([4]; read-out: IC90): 7.59 µg/mL (≈ 9.9 µM)
IC50 ([5]; read-out: IC50): 3.38 µg/mL (≈ 4.41 µM)
IC90 ([5]; read-out: IC90): 7.34 µg/mL (≈ 9.57 µM)
IC50 ([6]; read-out: IC50): 0.13 µg/mL (≈ 0.17 µM)
IC90 ([6]; read-out: IC90): 0.77 µg/mL (≈ 1 µM)
antitumor activity compared with that of fangchinoline [7]: significantly superior
IC50 ([8]; read-out: IC50): 0.99 µg/mL (≈ 1.29 µM)
IC90 ([8]; read-out: IC90): 2.93 µg/mL (≈ 3.82 µM)
IC50 ([9]; read-out: IC50): 0.6 µg/mL (≈ 0.782 µM)
IC90 ([9]; read-out: IC90): 2.15 µg/mL (≈ 2.8 µM)
IC50 ([10]; read-out: IC50): 2.11 µg/mL (≈ 2.75 µM)
IC90 ([10]; read-out: IC90): 7.74 µg/mL (≈ 10.1 µM)
IC50 ([11]; read-out: IC50): 1.58 µg/mL (≈ 2.06 µM)
IC90 ([11]; read-out: IC90): 3.84 µg/mL (≈ 5.01 µM)
IC50 ([12]; read-out: IC50): 3.4 µg/mL (≈ 4.43 µM)
IC90 ([12]; read-out: IC90): 5.5 µg/mL (≈ 7.17 µM)
IC50 ([13]; read-out: IC50): 1.69 µg/mL (≈ 2.2 µM)
IC90 ([13]; read-out: IC90): 5.79 µg/mL (≈ 7.55 µM)
IC50 ([14]; read-out: IC50): 3.69 µg/mL (≈ 4.81 µM)
IC90 ([14]; read-out: IC90): 7.88 µg/mL (≈ 10.3 µM)
IC50 ([15]; read-out: IC50): 2.7 µg/mL (≈ 3.52 µM)
IC90 ([15]; read-out: IC90): 5.9 µg/mL (≈ 7.69 µM)
IC50 ([16]; read-out: IC50): 2.54 µg/mL (≈ 3.31 µM)
IC90 ([16]; read-out: IC90): 5.91 µg/mL (≈ 7.71 µM)
IC50 ([17]; read-out: IC50): 3.36 µg/mL (≈ 4.38 µM)
IC90 ([17]; read-out: IC90): 5.3 µg/mL (≈ 6.91 µM)
IC50 ([18]; read-out: IC50): 2.72 µg/mL (≈ 3.55 µM)
IC90 ([18]; read-out: IC90): 3.98 µg/mL (≈ 5.19 µM)
